According to PubChem BioAssay (NCI):
“And” between values parts separate entries of the source, which are not always exact repeats. Equal entries are not always repeated.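 Test compounds were applied to cells in 96-well plates for 48 hours at 5 doses. Abbreviation: GI50, concentration required for 50% inhibition of growth. TGI: concentration producing complete growth inhibition.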

Tests used:
Experiment in all cases: inhibition of tumour cell growth, NCI panel, 48 h
K-562 leukemia = system: K-562 leukemia
LOX IMVI melanoma = system: LOX IMVI melanoma
NCI/ADR-RES ovarian = system: NCI/ADR-RES ovarian
SF-268 CNS = system: SF-268 CNS
NCI-H23 lung = system: NCI-H23 lung
HCT-116 colon = system: HCT-116 colon
MCF7 breast = system: MCF7 breast
M14 melanoma = system: M14 melanoma
DU-145 prostate = system: DU-145 prostate
SW-620 colon = system: SW-620 colon

| Compound | GI50 (K-562 leukemia) [µM] | TGI (K-562 leukemia) [µM] | GI50 (LOX IMVI melanoma) [µM] | TGI (LOX IMVI melanoma) [µM] | GI50 (NCI/ADR-RES ovarian) [µM] | TGI (NCI/ADR-RES ovarian) | GI50 (SF-268 CNS) [µM] | TGI (SF-268 CNS) [µM] | GI50 (NCI-H23 lung) [µM] | TGI (NCI-H23 lung) [µM] | GI50 (HCT-116 colon) [µM] | TGI (HCT-116 colon) [µM] | GI50 (MCF7 breast) [µM] | TGI (MCF7 breast) [µM] | GI50 (M14 melanoma) | TGI (M14 melanoma) [µM] | GI50 (DU-145 prostate) [µM] | TGI (DU-145 prostate) [µM] | GI50 (SW-620 colon) [µM] | TGI (SW-620 colon) [µM] |
| --- | --- | --- | --- | --- | --- | --- | --- | --- | --- | --- | --- | --- | --- | --- | --- | --- | --- | --- | --- | --- |
| CC(C)(C)CC(C)(C)c1ccc(O)c(Cc2ccc(Cl)cc2Cl)c1 | 2.09 | 3.83 | 1.53 | 2.86 | 1.65 | 3.05 µM | 1.6 | 2.95 | 1.53 | 2.89 | 1.66 | 3.16 | 1.52 | 2.85 | 1.61 µM | 3.08 | 1.69 | 3.05 | 1.64 | 2.99 |
| COC(=O)[C@]12CC[C@@H](C)[C@H](C)[C@@H]1C1=CC[C@@H]3[C@@]4(C)C[C@@H](OC(=O)/C=C/c5ccccc5)[C@H](O)[C@@](C)(CO)[C@@H]4[C@H](O)C[C@@]3(C)[C@]1(C)CC2 | 2.45 | 6.05 | 1.69 | 3.1 | 2.92 | 10.9 µM | 2.62 | 10.4 | 2.8 | 10.2 | 1.95 | 3.79 | 3.12 | 11.5 | 2.65 µM | 8.58 | 2.39 | 5.83 | 1.93 | 4.2 |
| C#Cc1cccc(Nc2ncnc3ccc(OCCCCNCCS(C)(=O)=O)cc23)c1 | 6.25 | 14.6 | 4.78 | 11.1 | 11.4 | > 25 µM | 6.13 | > 23.7 | 16.7 | > 25 | 6.81 | > 18.7 | 9.5 | > 25 | 5.11 µM | 9.66 | 4.34 | > 25 | 9.43 | > 25 |
| C=CC(=O)N1C[C@@H]2CCOc3c(Cl)c(-c4c(O)cccc4F)c(F)c4ncnc(c34)N2C[C@H]1C | 8.72 | > 100 | 12 | 24.4 | 17.4 | 62.6 µM | 12.5 | 29.1 | 0.0328 | 13.1 | 11.2 | 24.5 | 14.1 | 34.5 | 12.5 µM | 27.7 | 10.5 | 22.3 | 13.9 | 33.1 |
| COc1cc([N+](=O)[O-])c(OC)cc1-c1nc2sc(C)cn2c1/C(N)=N/C(=N)N | 2.59 | > 100 | 30.4 | > 100 | > 100 | > 100 µM | 22 | > 100 | 89.6 | > 100 | > 100 | > 100 | 3.92 | > 100 | > 100 µM | > 100 | 16.1 | > 100 | 5.78 | > 100 |
| Cc1ccc(C=C2C(Cl)=C(Cl)C(Cl)=C2Cl)cc1 | 0.202 | 0.522 | 0.303 | 0.959 | 0.324 | 1.52 µM | 0.617 | 2.28 | 0.533 | 2.5 | 0.358 | 1.04 | 0.39 | 2.37 | 0.561 µM | 1.66 | 0.926 | 3.13 | 0.339 | 1.18 |
| Cc1cnc2oc3ccc(O)cc3c2c1-c1ccccc1 | > 100 | > 100 | 21.6 | > 100 | 28.4 | > 100 µM | 16.1 | 58.8 | 21.6 | > 100 | > 100 | > 100 | 41 | > 100 | > 100 µM | > 100 | 62.5 | > 100 | > 100 | > 100 |
| COc1cccc(-c2cc(=O)c3cc(N4CCOCC4)ccc3[nH]2)c1 | 0.0267 | 0.179 | 0.0261 | – | – | 0.271 µM and 0.751 µM | 0.149 | 57.6 | 0.55 | – | 0.0371 | – | 0.0275 | 20.1 | 0.0365 µM and 0.0749 µM | > 100 | 0.0546 | – | 0.0125 | > 100 |
